Columns and labels:
PFKP = settings: ref Sanchez-Martinez et al., 2000; cited from earlier work
PFK = system: PFK; design: key to Effect (activator or inhibitor of PFK): “+” indicates activator; “-“ indicates inhibitor; settings: cited from earlier work; for Effect (activator or inhibitor of PFK): published literature, ref selected references in Supplementary Table 1
PFKL = settings: ref Van Schaftingen et al 1981; cited from earlier work
[1] = system: monocyte-derived macrophages; design: method as in FANTOM5 database; settings: n = 3, ref FANTOM5 database, cited from earlier work
recombinant human PFK-M = biological target: T1, recombinant human PFK-M (Homo sapiens, UniProt P08237); test: ALDO-TIM-G3PDH enzyme-linked kinetic assay, PFK-M; assay type: biochemical; settings: modulator 1100 µM
T1 construct: made in house; host or cells: PFK-deficient Saccharomyces cerevisiae
T1 sequence (P08237 1-780): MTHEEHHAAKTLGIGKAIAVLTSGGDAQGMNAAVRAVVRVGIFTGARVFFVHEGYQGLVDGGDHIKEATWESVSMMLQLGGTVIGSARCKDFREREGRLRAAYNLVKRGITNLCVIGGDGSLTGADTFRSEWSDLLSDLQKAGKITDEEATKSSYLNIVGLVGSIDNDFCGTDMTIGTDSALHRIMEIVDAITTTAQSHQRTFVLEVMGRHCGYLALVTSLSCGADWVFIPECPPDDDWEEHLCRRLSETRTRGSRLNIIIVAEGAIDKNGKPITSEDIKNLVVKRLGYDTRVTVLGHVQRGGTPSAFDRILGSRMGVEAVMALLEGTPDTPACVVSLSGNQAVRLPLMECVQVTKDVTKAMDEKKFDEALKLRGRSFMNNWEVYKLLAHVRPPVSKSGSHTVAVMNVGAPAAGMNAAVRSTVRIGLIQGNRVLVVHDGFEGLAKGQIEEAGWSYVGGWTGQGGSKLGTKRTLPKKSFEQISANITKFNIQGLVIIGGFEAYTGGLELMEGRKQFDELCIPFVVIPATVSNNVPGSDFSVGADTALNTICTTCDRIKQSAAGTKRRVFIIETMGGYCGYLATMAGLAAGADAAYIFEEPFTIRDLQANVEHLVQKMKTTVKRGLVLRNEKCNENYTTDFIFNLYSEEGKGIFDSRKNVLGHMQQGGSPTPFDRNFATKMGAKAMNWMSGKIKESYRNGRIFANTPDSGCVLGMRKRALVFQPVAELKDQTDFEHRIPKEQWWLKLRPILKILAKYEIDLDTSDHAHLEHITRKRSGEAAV
Protocol: (§1) Recombinant human PFKs were expressed in PFK-deficient Saccharomyces cerevisiae and purified using the methods described previously, adapting earlier materials and protocols. Production of PFK intended for use in ATP titration experiments used 1 mM F6P as a tetramer stabilising agent in protein purification and storage buffers. Production of PFK intended for use in F6P titration experiments used 1 mM ATP as a tetramer stabilising agent in protein purification and storage buffers. Experimental details on the purification and characterisation procedures including figures showing SDS–PAGE gels of the highly pure PFKs used in the kinetic experiments described in this work have been recently published.
(§2) Assay buffer consisted of 50 mM TEA, 100 mM KCl, 10 mM MgCl2, 1 mM Tris(2-carboxyethyl)phosphine hydrochloride (TCEP), 10% glycerol, pH 7.4. Assay mix consisted of 5 units/ml glycerol-3-phosphate dehydrogenase (G3PDH, Sigma–Aldrich G6880), 2.5 units/ml aldolase (Sigma–Aldrich A2714), 25 units/ml triosephosphate isomerase (TIM, Sigma–Aldrich T6258), and 1.25 mM NADH. ATP and F6P were obtained from Sigma–Aldrich (A2383 and F3627, respectively). For ATP titrations, 38 µl of buffer or ligand were added to a clear non-binding 96-well plate. 40 µl of assay mix containing 10 mM F6P (final concentration 4 mM) was added and the plate was incubated at 25°C for 5 min. An amount of 2 µl of PFK isoforms were added to each well from stock concentrations of 150 µg/ml and the reaction was immediately started with 20 µl of ATP at varying concentrations. For F6P titrations, 30 µl of buffer or ligand was added to a clear non-binding 96-well plate. An amount of 40 µl of assay mix containing 1.25 mM ATP (final concentration 0.5 mM) was added and the plate was incubated at 25°C for 5 min. An amount of 5 µl of PFK isoforms were added to each well from stock concentrations of 200 µg/ml and the reaction was immediately started with 20 µl F6P at varying concentrations. All ligands and substrates (including ATP) were used at pH 7.4. All metabolites were obtained from Sigma–Aldrich unless otherwise stated. […] A SpectraMax M5 Multi-Mode Microplate Reader was used to measure A340nm at 13 s intervals for 10 min. All experiments were performed in triplicate unless otherwise stated.
(§3) Time-dependent absorbance change was converted into rate of NADH oxidation (µM s^−1) or specific activity (µmol min^−1 mg protein^−1) using the Beer-Lambert law (molar extinction coefficient of NADH 6.22 mM^−1 cm^−1). The initial rate of reaction was used to avoid accumulation of ADP, which activates PFK, interfering with the determination of kinetic properties. Non-linear regression analysis was performed on substrate titration data using GraphPad Prism 7, with curves fitted using allosteric sigmoidal models, enabling determination of steady-state kinetic values.

recombinant human PFK-L = biological target: T2, recombinant human PFK-L (Homo sapiens, UniProt P17858); test: ALDO-TIM-G3PDH enzyme-linked kinetic assay, PFK-L; assay type: biochemical; settings: PFK-L, modulator 1100 µM
T2 construct: made in house; host or cells: PFK-deficient Saccharomyces cerevisiae
T2 sequence (P17858 1-780): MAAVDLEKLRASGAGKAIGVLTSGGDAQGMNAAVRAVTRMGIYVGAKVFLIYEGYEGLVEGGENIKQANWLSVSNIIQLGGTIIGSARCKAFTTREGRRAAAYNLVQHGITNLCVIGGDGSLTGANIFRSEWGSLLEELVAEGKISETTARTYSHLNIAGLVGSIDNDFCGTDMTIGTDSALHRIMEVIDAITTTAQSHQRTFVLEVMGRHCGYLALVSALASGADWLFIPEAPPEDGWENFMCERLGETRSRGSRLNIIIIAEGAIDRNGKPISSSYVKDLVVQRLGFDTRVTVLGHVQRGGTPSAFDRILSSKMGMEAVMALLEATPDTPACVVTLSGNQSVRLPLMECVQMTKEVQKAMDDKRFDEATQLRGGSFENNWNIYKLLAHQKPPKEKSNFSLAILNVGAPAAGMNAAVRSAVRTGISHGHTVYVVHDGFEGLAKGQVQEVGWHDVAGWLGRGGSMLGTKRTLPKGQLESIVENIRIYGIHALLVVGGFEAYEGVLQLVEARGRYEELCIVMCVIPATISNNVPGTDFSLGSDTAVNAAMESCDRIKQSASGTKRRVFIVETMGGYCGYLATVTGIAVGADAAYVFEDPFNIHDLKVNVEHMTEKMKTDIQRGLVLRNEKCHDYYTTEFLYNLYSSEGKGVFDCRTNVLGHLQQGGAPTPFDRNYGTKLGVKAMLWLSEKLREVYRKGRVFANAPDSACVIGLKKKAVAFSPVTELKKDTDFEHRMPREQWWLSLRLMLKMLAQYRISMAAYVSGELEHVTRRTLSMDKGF
Protocol: as §1, §2, §3

recombinant human PFK-P = biological target: T3, recombinant human PFK-P (Homo sapiens, UniProt Q01813); test: ALDO-TIM-G3PDH enzyme-linked kinetic assay, PFK-P; assay type: biochemical; settings: modulator 1100 µM
T3 construct: made in house; host or cells: PFK-deficient Saccharomyces cerevisiae
T3 sequence (Q01813 1-784): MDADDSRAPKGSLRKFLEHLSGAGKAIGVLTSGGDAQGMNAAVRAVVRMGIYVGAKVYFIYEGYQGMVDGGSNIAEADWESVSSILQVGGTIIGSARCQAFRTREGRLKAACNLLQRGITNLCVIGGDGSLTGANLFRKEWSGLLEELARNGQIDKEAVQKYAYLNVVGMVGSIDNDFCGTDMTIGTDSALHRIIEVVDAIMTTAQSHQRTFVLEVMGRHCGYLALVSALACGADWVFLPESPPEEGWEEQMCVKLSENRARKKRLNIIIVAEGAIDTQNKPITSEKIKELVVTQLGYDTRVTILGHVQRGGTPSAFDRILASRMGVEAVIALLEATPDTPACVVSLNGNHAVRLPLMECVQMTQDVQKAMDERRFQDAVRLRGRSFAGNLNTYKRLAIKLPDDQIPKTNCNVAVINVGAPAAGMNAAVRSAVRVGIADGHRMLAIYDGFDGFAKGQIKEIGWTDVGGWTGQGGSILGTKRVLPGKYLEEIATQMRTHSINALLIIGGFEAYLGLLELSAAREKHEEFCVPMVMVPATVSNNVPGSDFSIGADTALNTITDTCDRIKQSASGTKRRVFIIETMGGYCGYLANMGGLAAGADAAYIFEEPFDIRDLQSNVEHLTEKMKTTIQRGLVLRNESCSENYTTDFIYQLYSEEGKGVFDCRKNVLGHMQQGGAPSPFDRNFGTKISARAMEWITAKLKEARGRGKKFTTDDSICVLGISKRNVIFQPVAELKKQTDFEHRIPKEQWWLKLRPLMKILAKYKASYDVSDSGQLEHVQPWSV
Protocol: as §1, §2, §3

PFKM = settings: PFKM; ref Sanchez-Martinez et al., 2000; read-out: Kact; cited from earlier work

Molecule: N [NH4+]
- IC50 or AC50 (activator) (PFKP): 400 µM
- Effect (activator or inhibitor of PFK) (PFK): +

Molecule: O=P(O)(O)OC[C@H]1O[C@H](OP(=O)(O)O)[C@H](O)[C@@H](O)[C@@H]1O [G16BP]
- IC50 or AC50 (activator) (PFKL): 100 µM
- Effect (activator or inhibitor of PFK) (PFK): +

Molecule: Nc1nc2c(ncn2[C@@H]2O[C@@H]3COP(=O)(O)O[C@H]3[C@H]2O)c(=O)[nH]1 [cGMP]
- Effect (activator or inhibitor of PFK) (PFK): -

Molecule: lipopolysaccharide [LPS]
- PFK-P transcript level ([1]; monocyte-derived macrophages activated by LPS): 10.3 × baseline
- PFK-L transcript level ([1]; monocyte-derived macrophages after LPS stimulation): 1.9 × baseline

Molecule: Nc1nc2c(ncn2[C@@H]2O[C@H](COP(=O)(O)OP(=O)(O)O)[C@@H](O)[C@H]2O)c(=O)[nH]1 [GDP]
- change in kcat^ATP/K0.5^ATP compared with control PFK without modulator (recombinant human PFK-M): +4.3%
- change in kcat^ATP/K0.5^ATP compared with control PFK without modulator (recombinant human PFK-L): −48%
- K0.5ATP + modulator (recombinant human PFK-L; F6P 4mM, N=3, mean (SD)): 404.4 (65.6) M
- VmaxATP + modulator (recombinant human PFK-L; F6P 4mM, N=3, mean (SD)): 44.20 (2.84) moles/min/mg
- change in kcat^ATP/K0.5^ATP compared with control PFK without modulator (recombinant human PFK-P): −0.2%
- K0.5ATP + modulator (recombinant human PFK-P; F6P 4mM, N=3, mean (SD)): 924.6 (367.7) M
- VmaxATP + modulator (recombinant human PFK-P; F6P 4mM, N=3, mean (SD)): 31.48 (4.42) moles/min/mg

Molecule: O=C(COP(=O)(O)O)[C@@H](O)[C@H](O)[C@H](O)COP(=O)(O)O [F16BP, fructose 1,6-bisphosphate]
- EC50 (PFKM): 1.5 µM
- IC50 or AC50 (activator) (PFKL): 40 µM
- Effect (activator or inhibitor of PFK) (PFK): +

Molecule: [K+] [K+]
- Effect (activator or inhibitor of PFK) (PFK): +

Molecule: O=C1O[C@H]([C@@H](O)CO)C(O)=C1O [Ascorbate]
- Effect (activator or inhibitor of PFK) (PFK): -

Molecule: Actin
- Effect (activator or inhibitor of PFK) (PFK): +

Molecule: O=P(O)(O)O [PO4 3-]
- IC50 or AC50 (activator) (PFKP): 300 µM
- Effect (activator or inhibitor of PFK) (PFK): +

Molecule: Lactate
- Effect (activator or inhibitor of PFK) (PFK): -
- IC50 (PFK; value marked *, asterisk not explained, ref Costa Leite et al., 2007, read-out: IC50 or AC50 (inhibitor)): 4600 µM

B1: Band 3: protein, PFK inhibitor in the published literature (protein, UniProt P02730 1-911, looked up)
Band 3 anion transport protein: MEELQDDYEDMMEENLEQEEYEDPDIPESQMEEPAAHDTEATATDYHTTSHPGTHKVYVELQELVMDEKNQELRWMEAARWVQLEENLGENGAWGRPHLSHLTFWSLLELRRVFTKGTVLLDLQETSLAGVANQLLDRFIFEDQIRPQDREELLRALLLKHSHAGELEALGGVKPAVLTRSGDPSQPLLPQHSSLETQLFCEQGDGGTEGHSPSGILEKIPPDSEATLVLVGRADFLEQPVLGFVRLQEAAELEAVELPVPIRFLFVLLGPEAPHIDYTQLGRAAATLMSERVFRIDAYMAQSRGELLHSLEGFLDCSLVLPPTDAPSEQALLSLVPVQRELLRRRYQSSPAKPDSSFYKGLDLNGGPDDPLQQTGQLFGGLVRDIRRRYPYYLSDITDAFSPQVLAAVIFIYFAALSPAITFGGLLGEKTRNQMGVSELLISTAVQGILFALLGAQPLLVVGFSGPLLVFEEAFFSFCETNGLEYIVGRVWIGFWLILLVVLVVAFEGSFLVRFISRYTQEIFSFLISLIFIYETFSKLIKIFQDHPLQKTYNYNVLMVPKPQGPLPNTALLSLVLMAGTFFFAMMLRKFKNSSYFPGKLRRVIGDFGVPISILIMVLVDFFIQDTYTQKLSVPDGFKVSNSSARGWVIHPLGLRSEFPIWMMFASALPALLVFILIFLESQITTLIVSKPERKMVKGSGFHLDLLLVVGMGGVAALFGMPWLSATTVRSVTHANALTVMGKASTPGAAAQIQEVKEQRISGLLVAVLVGLSILMEPILSRIPLAVLFGIFLYMGVTSLSGIQLFDRILLLFKPPKYHPDVPYVKRVKTWRMHLFTGIQIICLAVLWVVKSTPASLALPFVLILTVPLRRVLLPLIFRNVELQCLDADDAKATFDEEEGRDEYDEVAMPV
- Effect (activator or inhibitor of PFK) (PFK): -
